These molecules were tested on HT-29 human colon cancer cells (assay: In vitro biological activity assay: inhibition of TNFα/SmacM/Z_VAD FMK-induced programmed necrosis, CellTiter-Glo viability). Settings: HT-29 cells, necrosis induced with TNF-α 100 ng/mL, SmacM 100 nM, Z_VAD-FMK 10 μM, overnight, cell viability by chemiluminescence.
Type: cell-based
Protocol: In order to verify the inhibitory effect of the compounds of the present disclosure on programmed necrosis at the cellular level, a type of cells closely related to the RIP1 pathway, namely HT-29 human colon cancer cells, were selected. The used activation mode is a combination of tumor necrosis factor (TNFα), cysteine aspartate activator mimic (SmacM) and pan-caspase inhibitor Z_VAD FMK, and the cell viability was calculated by detecting chemiluminescence values, thus obtaining the biological activity of the compound inhibiting the programmed necrosis of cells.
Cell line: HT-29 (ATCC® HTB-38™)
• 2.1. The Growth Status of HT-29 Cells was Regularly Checked to Ensure their Normal Growth. • 2.2. McCOY's 5A culture medium containing 10% FBS was preheated in a 37° C. water bath for 30 minutes. When the culture medium was ready for use, the cell passage and inoculation was performed in a Class II safety cabinet with aseptic technique. • 2.3. In a T75 culture flask, when the growth density of cells reached the abundance of approximately 80%, the culture medium was aspirated and cells were washed twice with pre-warmed PBS. • 2.4. 2-3 mL of trypsin (Gibco, catalog number 25200-056) was added and the T75 culture flask was transferred to a 37° C. incubator. • 2.5. After 3-5 minutes, the side of the culture flask was tapped and examined under a microscope for detachment of the cells to the flask. If necessary, the cells were placed back into the incubator to wait for another 5-10 minutes until 85% of the cells were detached from each other. • 2.6. 6-9 mL of complete cell culture medium was quickly added to terminate the trypsin reaction, and then the cells were transferred to a sterile 15 mL centrifuge tube. The cells were pelleted by centrifugation at 300 g for 5-7 minutes in a centrifuge, and then the supernatant was decanted. • 2.7. The cells were resuspended in 10 mL of fresh cell culture medium and the cells were counted by using a hemocytometer. • 2.8. 3,000 cells contained in 100 μL were inoculated into each well of a sterile 96-well cell culture plate (Corning 3903) and cultured overnight at 37° C. under 5% CO2.
• 3.1. All batches of compounds were dissolved in dimethyl sulfoxide (DMSO) to prepare a 20 mM stock. • 3.2. 3 μL of 20 mM stock of each compound was added to 27 μL of DMSO and mixed thoroughly, and then diluted at a dilution ratio of […] (20 μL compound+40 μL DMSO) until the 10-12 points ended. After the compounds were diluted, they were set aside for use. • 3.3. The cell culture plate was taken out from the incubator, washed once with PBS, and replaced with a fresh culture medium free of serum. A mixture of TNF-α (100 ng/mL), SMAC mimic (SmacM, 100 nM) and Z_VAD-FMK (10 μM) was added to induce the programmed necrosis in HT-29 cells. • 3.4. The compound dilution plate was prepared, 0.5 μL of the diluted compound was added to the corresponding 96-well plate, and mixed gently. Two duplicate wells were prepared for each compound. • 3.5. The treated 96-well plate to which the compounds had been added was placed back into the 37° C. incubator containing 5% CO2 and incubated overnight.
The luminescence cell viability detection kit was used to calculate the activity of the compound by measuring the ATP content in viable cells. • 4.1. The CellTiter-Glo® buffer and dry powdered substrate were equilibrated to room temperature before use. • 4.2. The CellTiter-Glo® substrate was resuspended with Cell Titer-Glo® buffer, then homogeneously mixed by gently vortexing. • 4.3. The cell culture plate was taken out and equilibrated at room temperature for 10 minutes (usually not suitable if more than 30 minutes). • 4.4. 20 μL of enzyme/substrate mixture was added into the 96-well assay plate with a multi-channel pipettor. • 4.5. The 96-well assay plate was placed on a shaker and the content was mixed for 2-3 minutes to promote the cell lysis. • 4.6. […]

| SMILES | EC50 |
| --- | --- |
| Nc1ncc(C#Cc2cncc(-n3cc4c(n3)C(c3cc(F)cc(F)c3)CC4)c2)cn1 (stereo not drawn) [Compound 48] | ≤ 100 nM |
| Cc1ncc(C#Cc2cnc(N)nc2)cc1-n1nc2c(n1)C(C1CCCCC1)CC2 (stereo not drawn) [Compound 64, 5-((5-(4-cyclohexyl-5,6-dihydrocyclopenta[d][1,2,3]triazol-2 (4H)-yl)-6-methylpyridin-3-yl)ethynyl)pyrimidin-2-amine] | ≤ 100 nM |
| C(#Cc1cnc2cccnn12)c1cc(-n2cc3c(n2)C(c2ccccc2)CC3)ncn1 (stereo not drawn) [Compound 8, 3-((6-(6-phenyl-5,6-dihydrocyclopenta[c]pyrazol-2 (4H)-yl)pyrimidine-4-yl)ethynyl)imidazo[1,2-b]pyridazine] | 100 to 1000 nM |
| C(#Cc1cnc2cccnn12)c1cncc(-n2cc3c(n2)C(c2ccccc2)CC3)n1 (stereo not drawn) [Compound 26, 3-((6-(6-phenyl-5,6-dihydrocyclopenta[c]pyrazol-2 (4H)-yl)pyrazin-2-yl)ethynyl)imidazo[1,2-b]pyridazine] | ≤ 100 nM |
| Cc1cnn(C)c1C#Cc1cccc(-n2cc3c(n2)C(c2ccccc2)CC3)c1 (stereo not drawn) [Compound 22, 2-(3-((1,4-dimethyl-1H-pyrazole-5-yl)ethynyl)phenyl)-6-phenyl-2,4,5,6-tetrahydrocyclopenta[c]pyrazole] | ≤ 100 nM |
| C(#Cc1cnc2cccnn12)c1ccnc(-n2cc3c(n2)C(c2ccccc2)CC3)c1 (stereo not drawn) [Compound 27] | ≤ 100 nM |
| Cn1cc(C#Cc2cccc(-n3cc4c(n3)C(c3ccccc3)CC4)c2)cn1 (stereo not drawn) [Compound 25, 2-(3-((1-methyl-iH-pyrazole-4-yl)ethynyl)phenyl)-6-phenyl-2,4,5,6-tetrahydrocyclopenta[c]pyrazole] | ≤ 100 nM |
| Nc1ncc(C#Cc2cncc(-n3cc4c(n3)[C@@H](c3cc(F)cc(F)c3)CC4)c2)cn1 [Compound 49, (R)-5-((5-(6-(3,5-difluorophenyl)-5,6-dihydrocyclopenta[c]pyrazol-2 (4H)-yl)pyridin-3-yl)ethynyl)pyrimidin-2-amine] | ≤ 100 nM |
| Cn1nccc1C#Cc1cccc(-n2cc3c(n2)C(c2ccccc2)CC3)c1 (stereo not drawn) [Compound 23, 2-(3-((1-methyl-1H-pyrazole-5-yl)ethynyl)phenyl)-6-phenyl-2,4,5,6-tetrahydrocyclopenta[c]pyrazole] | ≤ 100 nM |
| Cc1c(C#Cc2cnc(N)nc2)cncc1-n1cc2c(n1)C(c1ccccc1)CC2 (stereo not drawn) [Compound 43, 5-((4-methyl-5-(6-phenyl-5,6-dihydrocyclopenta[c]pyrazol-2 (4H)-yl)pyridine-3-yl)ethynyl)pyrimidin-2-amine] | ≤ 100 nM |
| Clc1ncc(C#Cc2cncc(-n3cc4c(n3)C(c3ccccc3)CC4)c2)cn1 (stereo not drawn) [Compound 41, 2-(5-((2-chloropyrimidin-5-yl)ethynyl)pyridin-3-yl)-6-phenyl-2,4,5,6-tetrahydrocyclopenta[c]pyrazole] | 100 to 1000 nM |
| Nc1ncc(C#Cc2cncc(-n3cc4c(n3)[C@@H](c3ccccc3)CC4)c2)cn1 [Compound 13, (R)-5-((5-(6-phenyl-5,6-dihydrocyclopenta[c]pyrazol-2 (4H)-yl)pyridin-3-yl)ethynyl)pyrimidin-2-amine] | ≤ 100 nM |
| Nc1cnc(C#Cc2cncc(-n3cc4c(n3)C(c3ccccc3)CC4)c2)cn1 (stereo not drawn) [Compound 18, 5-((5-(6-phenyl-5,6-dihydrocyclopenta[c]pyrazol-2 (4H)-yl)pyridin-3-yl)ethynyl)pyrazine-2-amine] | ≤ 100 nM |
| Nc1ncc(C#Cc2cncc(-n3cc4c(n3)[C@H](c3cccc(F)c3)CC4)c2)cn1 [Compound 46] | ≤ 100 nM |
| Cn1cc(C#Cc2cncc(-n3cc4c(n3)[C@H](c3ccccc3)CC4)c2)cnc1=O [Compound 21, (S)-1-methyl-5-((5-(6-phenyl-5,6-dihydrocyclopenta[c]pyrazol-2 (4H)-yl)pyridin-3-yl)ethynyl)pyrimidine-2 (1H)-one] | 100 to 1000 nM |
| Nc1ncc(C#Cc2cncc(-n3cc4c(n3)C(c3cncc(F)c3)CC4)c2)cn1 (stereo not drawn) [Compound 19, 5-((5-(6-(5-fluoropyridin-3-yl)-5,6-dihydrocyclopenta[c]pyrazol-2 (4H)-yl)pyridin-3-yl)ethynyl)pyrimidin-2-amine] | ≤ 100 nM |
| Nc1ncc(C#Cc2c[nH]c(=O)c(-n3nc4c(n3)C(c3ccccc3)CC4)c2)cn1 (stereo not drawn) [Compound 60, 5-((2-aminopyrimidin-5-yl)ethynyl)-3-(4-phenyl-5,6-dihydrocyclopenta[d][1,2,3]triazol-2 (4H)-yl)pyridine-2 (1H)-one] | > 1000 nM |
| Cn1c(-n2nc3c(n2)C(c2cncc(F)c2)CC3)cc(C#Cc2cnc(N)nc2)cc1=O (stereo not drawn) [Compound 59, 4-((2-aminopyrimidin-5-yl)ethynyl)-6-(4-(5-fluoropyridin-3-yl)-5,6-dihydrocyclopenta[d][1,2,3]triazol-2 (4H)-yl)-1-methylpyridin-2 (1H)-one] | ≤ 100 nM |
| N#Cc1cc(F)cc(C2CCc3cn(-c4cncc(C#Cc5cnc(N)nc5)c4)nc32)c1 (stereo not drawn) [Compound 20, 3-(2-(5-((2-aminopyrimidin-5-yl)ethynyl)pyridin-3-yl)-2,4,5,6-tetrahydrocyclopenta[c]pyrazol-6-yl)-5-fluorobenzonitrile] | ≤ 100 nM |
| Nc1ccc(C#Cc2cncc(-n3cc4c(n3)C(c3ccccc3)CC4)c2)nn1 (stereo not drawn) [Compound 17, 6-((5-(6-phenyl-5,6-dihydrocyclopenta[c]pyrazol-2 (4H)-yl)pyridin-3-yl)ethynyl)pyridazine-3-amine] | ≤ 100 nM |
| Nc1ncc(C#Cc2cncc(-n3cc4c(n3)[C@H](c3cc(F)cc(F)c3)CC4)c2)cn1 [Compound 50, (S)-5-((5-(6-(3,5-difluorophenyl)-5,6-dihydrocyclopenta[c]pyrazol-2 (4H)-yl)pyridin-3-yl)ethynyl)pyrimidin-2-amine] | ≤ 100 nM |
| Cc1ccc(C#Cc2cccc(-n3cc4c(n3)C(c3ccccc3)CC4)c2)cn1 (stereo not drawn) [Compound 35, 2-(3-((6-methylpyridin-3-yl)ethynyl)phenyl)-6-phenyl-2,4,5,6-tetrahydrocyclopenta[c]pyrazole] | ≤ 100 nM |
| Nc1ncc(C#Cc2cncc(-n3cc4c(n3)C(c3ccccc3)CC4)n2)cn1 (stereo not drawn) [Compound 29] | ≤ 100 nM |
| Oc1cnc(C#Cc2cncc(-n3cc4c(n3)C(c3ccccc3)CC4)c2)cn1 (stereo not drawn) [Compound 12, 5-((5-(6-phenyl-5,6-dihydrocyclopenta[c]pyrazol-2 (4H)-yl)pyridin-3-yl)ethynyl)pyrazine-2-ol] | > 1000 nM |
| Cc1cncc(C#Cc2cccc(-n3cc4c(n3)C(c3ccccc3)CC4)c2)c1 (stereo not drawn) [Compound 34, 2-(3-((5-methylpyridin-3-yl)ethynyl)phenyl)-6-phenyl-2,4,5,6-tetrahydrocyclopenta[c]pyrazole] | ≤ 100 nM |
| Nc1ncc(C#Cc2cncc(-n3cc4c(n3)[C@@H](c3cccc(F)c3)CC4)c2)cn1 [Compound 47, (R)-5-((5-(6-(3-fluorophenyl)-5,6-dihydrocyclopenta[c]pyrazol-2 (4H)-yl)pyridine-3-yl)ethynyl)pyrimidin-2-amine] | ≤ 100 nM |
| C(#Cc1cnc2cccnn12)c1cccc(-n2nc3c(n2)C(c2ccccc2)CC3)c1 (stereo not drawn) [Compound 53, 3-((3-(4-phenyl-5,6-dihydrocyclopenta[d][1,2,3]triazol-2 (4H)-yl)phenyl)ethynyl)imidazo[1,2-b]pyridazine] | ≤ 100 nM |

— patent US20240391900A1, “RIP1 KINASE INHIBITOR AND USE THEREOF” (SIRONAX (BEIJING) CO., LTD., priority 2021, published 2024)
